Measurements as given in patent US8604059B2, “Thioxanthene derivatives for the treatment of infectious diseases” (BKG Pharma APS, priority 2009, dated 2013).
Converted amounts (≈) assume the structure as drawn. “And” between values parts separate entries of the source, which are not always exact repeats. Equal values may be shown once.

Experiments:
[1] = system: Enterococcus faecalis BG VSE-92; experiment: Mouse peritonitis/sepsis model, NMRI mice; assay type: in vivo; settings: 3.1 mg/kg s.c.
Method: Mouse peritonitis/sepsis model.
A clinical isolate of Enterococcus faecalis BG VSE-92 from human urine was used. This strain is a multiresistant isolate.
Female NMRI mice (age, approximately 6 to 8 weeks; weight, 30±2 g) were used for the mouse […] peritonitis model (as described below).
Bacterial suspensions were prepared from fresh overnight cultures (made from frozen stock cultures) on 5% blood agar plates as described above. The inoculum for the mouse peritonitis model was prepared immediately before use and was adjusted at 540 nm of giving a density of approximately 10^7 CFU/ml. The size of the inoculum was determined by viability counting on 5% blood agar.
The mice were injected intraperitoneally with 0.5 ml of the enterococcal suspension, resulting in bacteremia within 1 h of inoculation. Antibiotic therapy was initiated 1 h after inoculation. N-dealkyl-Trans-clopenthixol was administered subcutaneously in the neck region in a volume of 0.7 ml per dose. Five mice were in each treatment group. Inoculated untreated control mice were included in all trials. (Method reference: Erlandsdottir et al; Antimicrob Agents Chemother. 2001 April; 45(4):1078-85)
The effects of the various treatment regimens were determined during 5 h of treatment by evaluation of bacterial counts in the peritoneal fluid. The bactericidal efficacies of the treatment regimens in the mouse models were calculated by subtracting the results for each treated mouse from the mean results for control mice at the end of therapy (5 h). A decrease of one thousand times (3 log 10 steps) represents maximum effect in this model and sustains strong bacterial killing effect of the compound tested.

Gram negative sp. = experiment: MIC on multiresistant and susceptible clinical isolates (Table 1b); assay type: cell-based; settings: 8 multiresistant and 8 susceptible isolates
Method: (§1) Cell growth was tested using the Minimal Inhibitory Concentration (MIC) susceptibility tests by use of the microdilution broth method in accordance to the NCCLS Guidelines (NCCLS Guidelines, Methods for Dilution Antimicrobial Susceptibility Tests for Bacteria That Grow Aerobically; Approved Standard, Sixth Edition, Volume 23; Number 2). The minimum inhibitory concentration (MIC), is defined as the lowest concentration of drug which inhibits growth of the test organism, in the sense that no visible growth is detected (total inhibition of growth). In example 2, MIC of the compounds used on fungal microorgansims was determined from the IC90 measurements according to NCCLS Guidelines.
(§2) A log phase culture of bacteria was diluted with fresh pre-warmed Mueller-Hinton medium and adjusted to a defined OD at 600 nm in order to give a final concentration of 1×10^4-5 bacteria/ml medium. The bacterial culture was transferred to microtiter-plates and culture was added to each well. Drug was added to the bacterial culture in the wells as two-fold dilution series of drug in order to give final concentrations ranging from 0.03 to 128 μg/ml. Trays were incubated at 37° C. by shaking in a robot analyzer, PowerWavex, software KC^4′ Kebo. Lab, Copenhagen, for 16 h and optical densities were measured at 600 nm during the incubation time in order to record growth curves. Wells containing bacterial culture without drug were used as controls to ensure correct inoculum size and bacterial growth during the incubation. Cultures were tested in order to detect contaminations. Each experiment was repeated in triplicate. MIC values represent the mean values of two separate triplicate experiments. Intra- and interassay variation was <5%.
(§3) Clinically relevant human bacterial isolates of Staphylococci, Streptococci, Micrococci and Gram negative species was cultured and assayed as described above for susceptibility towards the compounds listed in table 1b.

[2] = system: Staphylococci, Micrococci. Including MRSA; experiment: as above; assay type: cell-based; settings: Micrococci incl. MRSA, 8 multiresistant and 8 susceptible isolates
Method: as §1, §2, §3

Streptococci = experiment: as above; assay type: cell-based; settings: 8 multiresistant and 8 susceptible isolates
Method: as §1, §2, §3

strain IIIB of HIV-1 = experiment: Inhibition of HIV-1 replication in MT4 cells, MTT assay; assay type: cell-based
Method: The enhancing effect of compound 3 on anti-viral agents was studied by checkerboard combination studies exposing HIV infected cells to 0-3 μM anti-viral agent in the absence or presence of compound 3 in concentrations from 0 to 6 μM. Each experiment was repeated in tripleduplicate. MIC values represent the mean values of two separate experiments.
The HIV-1 strain HTLV-IIIB were propagated in H9 cells at 37° C., 5% CO2 using RPMI 1640 with 10% heat-inactivated foetal calf serum (FCS) and antibiotics (growth medium). Culture supernatant was filtered ([…]), aliquotted, and stored at −80° C. until use. The HIV-1 strain was obtained from NIH AIDS Research and Reference Program.
Compounds were examined for possible antiviral activity against strain IIIB of HIV-1 using MT4 cells as target cells. MT4 cells were incubated with virus (0.005 MOI) and growth medium containing the test dilutions of compound(s) for six days in parallel with virus-infected and uninfected control cultures without compound added. Expression of HIV in the cultures was indirectly quantified using the MTT assay as previously described. Compounds mediating less than 30% reduction of HIV expression were considered without biological activity. Compounds were tested in parallel for cytotoxic effect in uninfected MT4 cultures containing the test dilutions of compound as described above. Cultures for test of both antiviral activity and cytotoxic effect were set up in tripleduplicates, […] per culture in micro titre plates. A 30% inhibition of cell growth relative to control cultures was considered significant. The 50% inhibitory concentration was determined by interpolation from the plots of percent inhibition versus concentration of compound.
EC50 is defined as the effective concentration that inhibits 50% of viral production, 50% of viral infectivity, or 50% of the virus-induced cytopathic effect.

Enterococci sp. = experiment: MIC on multiresistant and susceptible clinical isolates of Enterococci (Table 2); assay type: cell-based, Enterococcus faecalis and Enterococcus faecium; settings: 8 multiresistant (VanA, VanB, HLAR, BLR,CR) and 8 susceptible isolates
Method: as §1
as §2, with “Wells containing bacterial culture without drug were used as controls to ensure correct inoculum size and bacterial growth during the incubation. Cultures were tested in order to detect contaminations. Each experiment was repeated in triplicate. MIC values represent the mean values of two separate triplicate experiments. Intra- and interassay variation was <5%.” left out

[3] = system: E. coli MDR clinical isolates; experiment: FIC index, synergy with antibiotics (Table 4a); assay type: cell-based; settings: 8 MDR E. coli, mean, compound at ¼ of MIC
Method: The effect of the compounds was tested according to the methods described in WO2005/105145. In brief, cell growth was tested using the MIC susceptibility tests by use of the microdilution broth method in accordance to the NCCLS Guidelines (NCCLS Guidelines, Methods for Dilution Antimicrobial Susceptibility Tests for Bacteria That Grow Aerobically; Approved Standard, Sixth Edition, Volume 23; Number 2).
The Fractional Inhibitory Concentration (FIC) index were calculated for each compound as described in WO2005/105145. Synergy was defined for Fractional Inhibitory Concentration (FIC) indices less than 0.5
E. coli: 8 in vivo-selected multidrug resistant clinical isolates of E. coli. Resistant to tetracycline, beta-lactams, fluoroquinolones, chloramphenicol and aminoglycoside

Question: Which results are given for Clc1ccc2c(c1)/C(=C/CCC1CCNCC1)c1ccccc1S2 [Compound 3]?
Answer: Decrease of number of bacteria per ml of peritoneal fluid ([1]; 5 hours, vs control): 3 log 10 steps; Bacteria survived after 5 hours ([1]; p<0.05): 0.001%; CFU/ml - peritoneum ([1]; treatment 0 and 1 hour, sampling 5 hours, individual mice): 2.05E+06 CFU/ml and 2.90E+06 CFU/ml and 4.25E+06 CFU/ml; MIC Mean (Gram negative sp.): 3 µg/mL (≈ 8.43 µM); MIC Mean [2]: 0.25 µg/mL (≈ 0.702 µM); MIC Mean (Streptococci): 0.25 µg/mL (≈ 0.702 µM); EC50 (strain IIIB of HIV-1; Human immunodeficiency virus 1, IIIB, 144 h, single agent, MT4 cells, six days, read-out: EC50): > 4 µM; Antiviral effect alone (strain IIIB of HIV-1; at the concentrations used): no antiviral or cytotoxic effect; Enhancement of the antiviral effect of AZT (strain IIIB of HIV-1; combination of compound 3 and AZT): 5 time; MIC Mean (range) (Enterococci sp.): 0.125 (0.06-0.125) μ/ml; FIC index ([3]; with Ampicillin): 0.44; FIC index ([3]; with Ciprofloxacin): 0.44; FIC index ([3]; with Gentamycin): 0.44; FIC index ([3]; with Tetracycline): 0.44
